Laboratory results published in US10647738B2, “Xylene-based amphiphilic compound and use thereof” (Industry-University Cooperation Foundation Hanyang …, priority 2016, dated 2020).
Several values for one entry are separate records, joined by “and”; a condition that tells them apart may be missing. Equal entries are not always repeated.

How the values were obtained:
[1] = molecular target: T1, melibiose permease (MelB) (Salmonella typhimurium, UniProt P30878); assay: MelB extraction from membranes and thermostability, SDS-PAGE and western blotting; conditions: for MelBSt stabilization ability compared with DDM: 1.5 wt % detergent, 0, 45, 55 and 65° C.
T1 construct: made in house; host or cells: Salmonella typhimurium DW2 cells (ΔmelB and ΔlacZY) (so in the source); membrane preparation
Method: An experiment for measuring the structural stability of the Salmonella typhimurium melibiose permease (MelB) protein due to XMAs was performed. The MelB protein was extracted on a membrane using XMAs and DDM, and the amount and structure of the extracted protein were analyzed by SDS-PAGE and western blotting. A concentration of the used compound was 1.5 wt %, and the protein was extracted at a different temperature (0, 45, 55, or 65° C.) to evaluate two kinds of performance such as protein extraction efficiency and stabilization ability of the compound at the same time. Membrane samples that were not treated with XMAs or DDM were used as controls.
Specifically, MelBSt stability due to DDM and XMAs was evaluated according to the method described in the paper (P. S. Chae, et al., Nat. Methods 2010, 7, 1003-1008) written by the inventor in 2010. The protein (MelBSt) was produced using plasmid pK95ΔAHB/WT MelBSt/CH10 encoding wild-type MelB with a 10-His tag at the C-terminus and Salmonella typhimurium DW2 cells (ΔmelB and ΔlacZY). Cell growth and membrane preparation were carried out according to the method described in the paper (Nat. Commun. 2014, 5, 3009) written by A. S. Ethayathulla et al. A protein assay was performed using a Micro BCA kit (Thermo Scientific, Rockford, Ill.). To measure solubilization/stability, MelBSt-containing membrane samples (final protein concentration of 10 mg/mL) were incubated with a solubilization buffer (20 mM sodium phosphate, pH 7.5, 200 mM NaCl, 10% glycerol, 20 mM melibiose) and 1.5% (w/v) DDM, P-XMAs (P-XMA-C8, P-XMA-C9, P-XMA-C10, P-XMA-C11 and P-XMA-C12), M-XMAs (M-XMA-C11, M-XMA-C12, M-XMA-C14, M-XMA-C16 and M-XMA-C18) or O-XMAs (O-XMA-C11, O-XMA-C12, O-XMA-C14, O-XMA-C16 and O-XMA-C18) at four different temperatures (0, 45, 55 and 65° C.) for 90 minutes. Following ultracentrifugation at 355,590 g in a Beckman Optima™ MAX ultracentrifuge using a TLA-100 rotor for 45 minutes at 4° C., 20 μg proteins were separated by SDS-16% PAGE, and then immunoblotted with a Penta-His-HRP antibody (Qiagen, Germantown, Md.). MelBSt was detected using a SuperSignal West Pico chemiluminescent substrate by an ImageQuant LAS 4000 Biomolecular Imager (GE Health Care Life Sciences).

[2] = Hydrodynamic radius and size distribution of micelles by dynamic light scattering (DLS); format: physicochemical; conditions: for Rh (nm), hydrodynamic radius of micelles: 1.0 wt % stated for M-/O-XMAs (FIG. 37); for size distribution of micelles (number of micelle sets): FIGS. 36 and 37
Method: A method for measuring the radius of a micelle is not particularly limited, but a method well known in the art may be used, and for example, the measurement may be performed using a dynamic light scattering (DLS) experiment.
(§1) Specifically, the critical micellar concentration (CMC) was measured using fluorescence staining and diphenylhexatriene (DPH), and the hydrodynamic radii (Rh) of the micelles formed by agents were measured through a dynamic light scattering (DLS) experiment. The measured results are shown in Tables 1 and 2, compared with a conventional amphiphilic molecule (detergent), DDM.

[3] = Critical micelle concentration by fluorescence staining with diphenylhexatriene (DPH); format: physicochemical; conditions: aqueous solution
Method: While a method for measuring CMC is not particularly limited, a method widely known in the art may be used, and the measurement may be performed by, for example, a fluorescence staining method using diphenylhexatriene (DPH).
as §1

[4] = 1.5 wt % detergent, 45° C., 90 minutes
[5] = 1.5 wt % detergent, 55° C., 90 minutes
[6] = 1.5 wt % detergent, 0° C., 90 minutes

T1 sequence (P30878 whole entry): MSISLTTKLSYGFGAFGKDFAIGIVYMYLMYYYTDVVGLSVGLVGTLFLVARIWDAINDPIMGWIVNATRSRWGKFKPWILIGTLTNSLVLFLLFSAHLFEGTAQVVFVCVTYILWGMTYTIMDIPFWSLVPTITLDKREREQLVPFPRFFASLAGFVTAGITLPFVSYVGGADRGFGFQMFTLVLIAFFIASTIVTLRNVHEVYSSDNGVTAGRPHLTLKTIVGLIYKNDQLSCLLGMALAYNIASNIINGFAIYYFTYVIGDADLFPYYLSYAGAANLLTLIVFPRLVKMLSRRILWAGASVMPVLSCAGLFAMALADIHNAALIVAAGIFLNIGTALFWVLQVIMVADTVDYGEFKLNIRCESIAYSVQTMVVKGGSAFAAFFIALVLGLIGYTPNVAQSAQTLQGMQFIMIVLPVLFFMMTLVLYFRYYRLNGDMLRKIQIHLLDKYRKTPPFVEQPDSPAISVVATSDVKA

Compound: CCCCCCCCCCC(CO[C@@H]1OC(CO)[C@@H](O[C@H]2OC(CO)[C@@H](O)C(O)C2O)C(O)C1O)(CO[C@@H]1OC(CO)[C@@H](O[C@H]2OC(CO)[C@@H](O)C(O)C2O)C(O)C1O)Cc1ccc(CC(CCCCCCCCCC)(CO[C@@H]2OC(CO)[C@@H](O[C@H]3OC(CO)[C@@H](O)C(O)C3O)C(O)C2O)CO[C@@H]2OC(CO)[C@@H](O[C@H]3OC(CO)[C@@H](O)C(O)C3O)C(O)C2O)cc1 (stereo partly shown) [P-XMA-C10]
- MelBSt stabilization ability compared with DDM [1]: higher MelBSt stabilization ability than DDM
- MelB protein extraction efficiency [1, 4]: extraction efficiency at the same level as DDM
- MelB protein extraction / maintained solubilization [1, 5]: higher MelBSt extraction ability than DDM
- MelB protein extraction ([1]; 1.5 wt % detergent, 65° C., 90 minutes): extracted MelBSt
- Rh (nm), hydrodynamic radius of micelles [2]: 3.5 ± 0.01 nm
- size distribution of micelles (number of micelle sets) [2]: two sets of micelles having different radii
- CMC [3]: ~7 µM
- CMC (wt %) [3]: ~0.001 wt %

Compound: CCCCCCCCCCCC(CO[C@@H]1OC(CO)[C@@H](O[C@@H]2OC(CO)[C@@H](O)C(O)C2O)C(O)C1O)(CO[C@@H]1OC(CO)[C@@H](O[C@@H]2OC(CO)[C@@H](O)C(O)C2O)C(O)C1O)Cc1ccccc1C[C@](CCCCCCCCCCC)(CO[C@@H]1OC(CO)[C@@H](O[C@H]2OC(CO)[C@@H](O)C(O)C2O)C(O)C1O)CO[C@@H]1OC(CO)[C@@H](O[C@@H]2OC(CO)[C@@H](O)C(O)C2O)C(O)C1O (stereo partly shown) [O-XMA-C11]
- Rh (nm), hydrodynamic radius of micelles [2]: 3.0 ± 0.02 nm
- CMC (wt %) [3]: ~0.0019 wt %

Compound: CCCCCCCCCCCCCCCCCCC(CO[C@@H]1OC(CO)[C@@H](O[C@@H]2OC(CO)[C@@H](O)C(O)C2O)C(O)C1O)(CO[C@@H]1OC(CO)[C@@H](O[C@@H]2OC(CO)[C@@H](O)C(O)C2O)C(O)C1O)Cc1ccccc1CC(CCCCCCCCCCCCCCCCCC)(CO[C@@H]1OC(CO)[C@@H](O[C@@H]2OC(CO)[C@@H](O)C(O)C2O)C(O)C1O)CO[C@@H]1OC(CO)[C@@H](O[C@@H]2OC(CO)[C@@H](O)C(O)C2O)C(O)C1O (stereo partly shown) [O-XMA-C18]
- Rh (nm), hydrodynamic radius of micelles [2]: 3.9 ± 0.04 nm
- CMC (wt %) [3]: ~0.0003 wt %

Compound: CCCCCCCCCC(CO[C@@H]1OC(CO)[C@@H](O[C@H]2OC(CO)[C@@H](O)C(O)C2O)C(O)C1O)(CO[C@@H]1OC(CO)[C@@H](O[C@H]2OC(CO)[C@@H](O)C(O)C2O)C(O)C1O)Cc1ccc(CC(CCCCCCCCC)(CO[C@@H]2OC(CO)[C@@H](O[C@H]3OC(CO)[C@@H](O)C(O)C3O)C(O)C2O)CO[C@@H]2OC(CO)[C@@H](O[C@H]3OC(CO)[C@@H](O)C(O)C3O)C(O)C2O)cc1 (stereo partly shown) [P-XMA-C9]
- MelBSt stabilization ability compared with DDM [1]: higher MelBSt stabilization ability than DDM
- MelB protein extraction efficiency [1, 4]: extraction efficiency at the same level as DDM
- MelB protein extraction / maintained solubilization [1, 5]: higher MelBSt extraction ability than DDM
- micelle size compared with DDM [2]: smaller than DDM
- Rh (nm), hydrodynamic radius of micelles [2]: 3.2 ± 0.01 nm
- size distribution of micelles (number of micelle sets) [2]: one set of micelles
- CMC [3]: ~10 µM
- CMC (wt %) [3]: ~0.002 wt %

Compound: CCCCCCCCCCCCCCCCCCC(CO[C@@H]1OC(CO)[C@@H](O[C@@H]2OC(CO)[C@@H](O)C(O)C2O)C(O)C1O)(CO[C@@H]1OC(CO)[C@@H](O[C@@H]2OC(CO)[C@@H](O)C(O)C2O)C(O)C1O)Cc1cccc(CC(CCCCCCCCCCCCCCCCCC)(CO[C@@H]2OC(CO)[C@@H](O[C@@H]3OC(CO)[C@@H](O)C(O)C3O)C(O)C2O)CO[C@@H]2OC(CO)[C@@H](O[C@@H]3OC(CO)[C@@H](O)C(O)C3O)C(O)C2O)c1 (stereo partly shown) [M-XMA-C18]
- MelB protein extraction efficiency [1, 6]: protein extraction efficiency at almost the same level as DDM
- Rh (nm), hydrodynamic radius of micelles [2]: 4.1 ± 0.04 nm
- CMC [3]: ~1.5 µM
- CMC (wt %) [3]: ~0.0003 wt %

Compound: CCCCCCCCCCCCCCCCC(CO[C@@H]1OC(CO)[C@@H](O[C@@H]2OC(CO)[C@@H](O)C(O)C2O)C(O)C1O)(CO[C@@H]1OC(CO)[C@@H](O[C@@H]2OC(CO)[C@@H](O)C(O)C2O)C(O)C1O)Cc1ccccc1CC(CCCCCCCCCCCCCCCC)(CO[C@@H]1OC(CO)[C@@H](O[C@@H]2OC(CO)[C@@H](O)C(O)C2O)C(O)C1O)CO[C@@H]1OC(CO)[C@@H](O[C@@H]2OC(CO)[C@@H](O)C(O)C2O)C(O)C1O (stereo partly shown) [O-XMA-C16]
- Rh (nm), hydrodynamic radius of micelles [2]: 3.9 ± 0.06 nm
- CMC [3]: ~2.0 µM
- CMC (wt %) [3]: ~0.0004 wt %

Compound: CCCCCCCCCCCCCCC(CO[C@@H]1OC(CO)[C@@H](O[C@@H]2OC(CO)[C@@H](O)C(O)C2O)C(O)C1O)(CO[C@@H]1OC(CO)[C@@H](O[C@@H]2OC(CO)[C@@H](O)C(O)C2O)C(O)C1O)Cc1ccccc1CC(CCCCCCCCCCCCCC)(CO[C@@H]1OC(CO)[C@@H](O[C@@H]2OC(CO)[C@@H](O)C(O)C2O)C(O)C1O)CO[C@@H]1OC(CO)[C@@H](O[C@@H]2OC(CO)[C@@H](O)C(O)C2O)C(O)C1O (stereo partly shown) [O-XMA-C14]
- Rh (nm), hydrodynamic radius of micelles [2]: 3.5 ± 0.04 nm
- CMC [3]: ~3.0 µM
- CMC (wt %) [3]: ~0.0006 wt %

Compound: CCCCCCCCC(CO[C@@H]1OC(CO)[C@@H](O[C@H]2OC(CO)[C@@H](O)C(O)C2O)C(O)C1O)(CO[C@@H]1OC(CO)[C@@H](O[C@H]2OC(CO)[C@@H](O)C(O)C2O)C(O)C1O)Cc1ccc(C[C@](CCCCCCCC)(CO[C@H]2CC(O)[C@H](O[C@H]3OC(CO)[C@@H](O)C(O)C3O)C(CO)O2)CO[C@@H]2OC(CO)[C@@H](O[C@H]3OC(CO)[C@@H](O)C(O)C3O)C(O)C2O)cc1 (stereo partly shown) [P-XMA-C8]
- micelle size compared with DDM [2]: smaller than DDM
- Rh (nm), hydrodynamic radius of micelles [2]: 2.7 nm and 2.7 ± 0.04 nm
- size distribution of micelles (number of micelle sets) [2]: one set of micelles
- CMC (wt %) [3]: ~0.004 wt %

Compound: CCCCCCCCCCCCCCC(CO[C@@H]1OC(CO)[C@@H](O[C@H]2OC(CO)[C@@H](O)C(O)C2O)C(O)C1O)(CO[C@@H]1OC(CO)[C@@H](O[C@H]2OC(CO)[C@@H](O)C(O)C2O)C(O)C1O)Cc1cccc(C[C@](CCCCCCCCCCCCCC)(CO[C@@H]2OC(CO)[C@@H](O[C@H]3OC(CO)[C@@H](O)C(O)C3O)C(O)C2O)CO[C@@H]2OC(CO)[C@@H](O[C@@H]3OC(CO)[C@@H](O)C(O)C3O)C(O)C2O)c1 (stereo partly shown) [M-XMA-C14]
- solubilized MelB retained, percentage of total protein in untreated membrane sample ([1]; 1.5 wt % detergent, 55° C.): approximately 70%
- MelB protein extraction / maintained solubilization [1, 5]: most effective
- Rh (nm), hydrodynamic radius of micelles [2]: 3.6 ± 0.07 nm
- CMC [3]: ~2.5 µM
- CMC (wt %) [3]: ~0.0005 wt %

Compound: CCCCCCCCCCCCCCCC[C@@](CO[C@@H]1OC(CO)[C@@H](O[C@H]2OC(CO)[C@@H](O)C(O)C2O)C(O)C1O)(CO[C@@H]1OC(CO)[C@@H](O[C@@H]2OC(CO)[C@@H](O)C(O)C2O)C(O)C1O)Cc1cccc(C[C@](CCCCCCCCCCCCCCCC)(CO[C@@H]2OC(CO)[C@@H](O[C@H]3OC(CO)[C@@H](O)C(O)C3O)C(O)C2O)CO[C@@H]2CC(CO)[C@@H](O[C@H]3OC(CO)[C@@H](O)C(O)C3O)C(O)C2O)c1 (stereo partly shown) [M-XMA-C16]
- MelB protein extraction efficiency [1, 6]: protein extraction efficiency at almost the same level as DDM
- Rh (nm), hydrodynamic radius of micelles [2]: 3.9 ± 0.04 nm
- CMC [3]: ~2.0 µM
- CMC (wt %) [3]: ~0.0004 wt %
